Measurements: patent publication US20070093520A1, “Method of treatment of diarrhea-predominant irritable bowel syndrome in a subject” (priority 2005, published 2007)
Like-named read-outs stand apart in the source and are kept apart here.

Test system: diarrhea-predominant IBS subjects
Assay type: in vivo, human
Settings: for TEAE incidence: constipation / TEAE incidence: nausea: 3007 Study
Method: The study was performed in approximately 150 study centers. Approximately 1600 eligible subjects were to be given cilansetron 2 mg TID. At Visit 1, pre-treatment assessments were conducted. […] Subjects were to return to the study site one month later for Visit 3 (Day 31) for their first interim assessment. […] All subjects who discontinued from the study were to have the same post-study assessments required at Visit 7 performed at their early termination visit. […]
Stool specimens were analyzed at every visit for occult blood. An independent GERB had been established to provide advice on GI AEs during the course of the study.
Adverse events were assessed at Baseline, at each clinic visit, and at the end of the study (Month 12 or the early termination visit). All AEs, which occurred during the study were followed up in accordance with good medical practice until resolved or judged no longer clinically significant, or if a condition was chronic, until fully characterized. Adverse events could occur in the specified follow-up period and, regardless of the interval since the last administration of the study medication, were treated in the same manner as an AE which occurred during the treatment with study medication. Each AE was evaluated for duration, severity, seriousness, and causal relationship to the investigational drug. The action taken and the outcome were also recorded.
Specifically, subjects who were lost to follow-up and had no post-Baseline contact with the site were excluded from the Safety population. The subjects who discontinued from the study due to lost to follow-up were identified based on the information collected on the study termination CRF page.
After the pretreatment assessment at Visit 1 (Days […] to −3), subjects were to return to the study site for a Baseline assessment and start the treatment at Visit 2 (Day 1).
For the by time-interval analyses of disposition, prevalence of AEs, and of markedly abnormal and predefined changes in laboratory values, vital signs, and ECGs, the following interval windows were used:
Adverse events that were already present prior to the first dose of cilansetron study medication but increased in severity afterwards were considered as treatment-emergent.
The 5% cutoff point was based on the incidence within higher level terms.
Subjects were counted at most once for each primary system organ class and preferred term. Serious AEs that resolved prior to receiving study medication or occurred more than 30 days after the last dose of study medication were not included in the incidence tables. A listing of all SAEs is presented; SAEs with onset prior to receiving study medication or more than 30 days after discontinuation of study medication were flagged. The listing presents lower level term and preferred term of the SAE, severity, action taken, outcome, and relationship of the SAE, start and stop date of the SAE, study day of onset of the SAE, age, race, and sex.

[1] = 2 mg, Safety Population, 3008, under Neoplasms Benign, Malignant and Unspecified
[2] = 2 mg, Safety Population, 3008, under Pregnancy, Puerperium and Perinatal Conditions
[3] = 2 mg, Safety Population, 3008, under Social Circumstances
[4] = 2 mg, Safety Population, 3008, under Surgical and Medical Procedures
[5] = 2 mg, Safety Population, 3008, under Vascular Disorders

Cc1nccn1C[C@H]1CCc2c(c3cccc4c3n2CCC4)C1=O [cilansetron, (R)-(−)-4,5,6,8,9,10-hexahydro-10-[(2-methyl-1H-imidazol-1-yl)methyl]-11H-pyrido-[3,2,1-jk]-carbazol-11-one]
TEAE incidence: Haemangioma of Liver [1]: 2 (<1%) n (%)
TEAE incidence: Hepatobiliary Neoplasms Benign [1]: 2 (<1%) n (%)
TEAE incidence: Large Cell Carcinoma of the Respiratory Tract Stage Unspecified [1]: 1 (<1%) n (%)
TEAE incidence: Lip and Oral Cavity Neoplasms Benign [1]: 1 (<1%) n (%)
TEAE incidence: Lipoma NOS [1]: 2 (<1%) n (%)
TEAE incidence: Lung Adenocarcinoma NOS [1]: 1 (<1%) n (%)
TEAE incidence: Non-Hodgkin's Lymphoma NOS [1]: 1 (<1%) n (%)
TEAE incidence: Non-Hodgkin's Lymphomas NEC [1]: 1 (<1%) n (%)
TEAE incidence: Non-Small Cell Neoplasms Malignant of the Respiratory Tract Cell Type Specified [1]: 2 (<1%) n (%)
TEAE incidence: Pancreatic Carcinoma NOS [1]: 1 (<1%) n (%)
TEAE incidence: Pancreatic Neoplasms Malignant (Excl Islet Cell and Carcinoid) [1]: 1 (<1%) n (%)
TEAE incidence: Rectal Cancer NOS [1]: 1 (<1%) n (%)
TEAE incidence: Rectal Neoplasms Malignant [1]: 1 (<1%) n (%)
TEAE incidence: Salivary Gland Adenoma [1]: 1 (<1%) n (%)
TEAE incidence: Soft Tissue Neoplasms Benign NEC [1]: 2 (<1%) n (%)
TEAE incidence: Urinary Tract Neoplasms Benign [1]: 1 (<1%) n (%)
TEAE incidence: Urinary Tract Neoplasms Unspecified Malignancy NEC [1]: 1 (<1%) n (%)
TEAE incidence: Uterine Fibroids* [1]: 3 (<1%) n (%)
TEAE incidence: Uterine Neoplasms Benign* [1]: 3 (<1%) n (%)
TEAE incidence: Normal Pregnancy, Labour and Delivery* [2]: 2 (<1%) n (%)
TEAE incidence: Pregnancy NOS* [2]: 2 (<1%) n (%)
TEAE incidence: Genital Haemorrhage NOS (2 mg, Safety Population, 3008, under Reproductive Tract Disorders NEC (Excl Neoplasms)): 1 (<1%) n (%)
TEAE incidence: Age Related Issues [3]: 3 (<1%) n (%)
TEAE incidence: Menopause* [3]: 3 (<1%) n (%)
TEAE incidence: Bone Therapeutic Procedures NEC [4]: 1 (<1%) n (%)
TEAE incidence: Fallopian Tube Therapeutic Procedures* [4]: 1 (<1%) n (%)
TEAE incidence: Osteosynthesis [4]: 1 (<1%) n (%)
TEAE incidence: Tubal Ligation* [4]: 1 (<1%) n (%)
TEAE incidence: Bruising, Ecchymosis and Purpura [5]: 1 (<1%) n (%)
TEAE incidence: Circulatory Collapse and Shock [5]: 1 (<1%) n (%)
TEAE incidence: Essential Hypertension [5]: 1 (<1%) n (%)
TEAE incidence: Hypertension Aggravated [5]: 4 (<1%) n (%)
TEAE incidence: Hypertension NOS [5]: 15 (1%) n (%)
TEAE incidence: Non-Site Specific Vascular Disorders NEC [5]: 1 (<1%) n (%)
TEAE incidence: Orthostatic Hypotension [5]: 3 (<1%) n (%)
TEAE incidence: Peripheral Embolism and Thrombosis [5]: 1 (<1%) n (%)
TEAE incidence: Periphlebitis [5]: 1 (<1%) n (%)
TEAE incidence: Petechiae [5]: 1 (<1%) n (%)
TEAE incidence: Phlebitis NEC [5]: 4 (<1%) n (%)
TEAE incidence: Phlebitis NOS [5]: 2 (<1%) n (%)
TEAE incidence: Phlebitis Superficial [5]: 1 (<1%) n (%)
TEAE incidence: Shock [5]: 1 (<1%) n (%)
TEAE incidence: Varicose Veins NOS [5]: 1 (<1%) n (%)
TEAE incidence: Varicose Veins Non-Site Specific [5]: 1 (<1%) n (%)
TEAE incidence: Vascular Disorder NOS [5]: 1 (<1%) n (%)
TEAE incidence: Vascular Hypertensive Disorders NEC [5]: 20 (1%) n (%)
TEAE incidence: Vascular Hypotensive Disorders [5]: 3 (<1%) n (%)
TEAE incidence: Venous Thrombosis Deep Limb [5]: 1 (<1%) n (%)
TEAE incidence: constipation (all subjects): 15%
TEAE incidence: nausea (all subjects): 5%
TEAE incidence: constipation (females): 19%
TEAE incidence: nausea (females): 7%
TEAE incidence: constipation (males): 11%
TEAE incidence: nausea (males): 3%
TEAE incidence: Abdominal Discomfort (Cilansetron 2 mg, N=1454): 6 (<1%) n (%)
TEAE incidence: Abdominal Distension (Cilansetron 2 mg, N=1454): 57 (4%) n (%)
TEAE incidence: Abdominal Findings Abnormal (Cilansetron 2 mg, N=1454): 2 (<1%) n (%)
TEAE incidence: Abdominal Hernias, Site Unspecified (Cilansetron 2 mg, N=1454): 1 (<1%) n (%)
TEAE incidence: Abdominal Pain Aggravated (Cilansetron 2 mg, N=1454): 8 (<1%) n (%)
TEAE incidence: Abdominal Pain Lower (Cilansetron 2 mg, N=1454): 21 (1%) n (%)
TEAE incidence: Abdominal Pain Upper (Cilansetron 2 mg, N=1454): 50 (3%) n (%)
TEAE incidence: Abdominal Rigidity (Cilansetron 2 mg, N=1454): 1 (<1%) n (%)
TEAE incidence: Abnormal Sleep-Related Events (Cilansetron 2 mg, N=1454): 1 (<1%) n (%)
TEAE incidence: Abscess Limb (Cilansetron 2 mg, N=1454): 1 (<1%) n (%)
TEAE incidence: Abscess NOS (Cilansetron 2 mg, N=1454): 1 (<1%) n (%)
TEAE incidence: Absence Seizures (Cilansetron 2 mg, N=1454): 1 (<1%) n (%)
TEAE incidence: Acute and Chronic Pancreatitis (Cilansetron 2 mg, N=1454): 1 (<1%) n (%)
TEAE incidence: Aerophagia (Cilansetron 2 mg, N=1454): 1 (<1%) n (%)
TEAE incidence: Alanine Aminotransferase Increased (Cilansetron 2 mg, N=1454): 19 (1%) n (%)
TEAE incidence: Anal Abscess (Cilansetron 2 mg, N=1454): 1 (<1%) n (%)
TEAE incidence: Anal Discomfort (Cilansetron 2 mg, N=1454): 3 (<1%) n (%)
TEAE incidence: Anal Fissure (Cilansetron 2 mg, N=1454): 5 (<1%) n (%)
TEAE incidence: Anal Haemorrhage (Cilansetron 2 mg, N=1454): 2 (<1%) n (%)
TEAE incidence: Anal Ulcer (Cilansetron 2 mg, N=1454): 1 (<1%) n (%)
TEAE incidence: Anal and Colorectal Neoplasms NEC (Cilansetron 2 mg, N=1454): 1 (<1%) n (%)
TEAE incidence: Anal and Rectal Disorders NEC (Cilansetron 2 mg, N=1454): 8 (<1%) n (%)
TEAE incidence: Anal and Rectal Pains (Cilansetron 2 mg, N=1454): 7 (<1%) n (%)
TEAE incidence: Anal and Rectal Signs and Symptoms (Cilansetron 2 mg, N=1454): 7 (<1%) n (%)
TEAE incidence: Anal and Rectal Ulcers and Perforation (Cilansetron 2 mg, N=1454): 2 (<1%) n (%)
TEAE incidence: Antibiotic Associated Colitis (Cilansetron 2 mg, N=1454): 1 (<1%) n (%)
TEAE incidence: Aphthous Stomatitis (Cilansetron 2 mg, N=1454): 1 (<1%) n (%)
TEAE incidence: Appendiceal Abscess (Cilansetron 2 mg, N=1454): 1 (<1%) n (%)
TEAE incidence: Appendicitis (Cilansetron 2 mg, N=1454): 1 (<1%) n (%)
TEAE incidence: Arterial Pressure NOS Increased (Cilansetron 2 mg, N=1454): 1 (<1%) n (%)
TEAE incidence: Aspartate Aminotransferase Increased (Cilansetron 2 mg, N=1454): 16 (1%) n (%)
TEAE incidence: Benign Oral Cavity Neoplasms (Cilansetron 2 mg, N=1454): 1 (<1%) n (%)
TEAE incidence: Bilirubin Urine (Cilansetron 2 mg, N=1454): 1 (<1%) n (%)
TEAE incidence: Blood Alkaline Phosphatase NOS Increased (Cilansetron 2 mg, N=1454): 7 (<1%) n (%)
TEAE incidence: Blood Bilirubin Increased (Cilansetron 2 mg, N=1454): 5 (<1%) n (%)
TEAE incidence: Blood Bilirubin Unconjugated Increased (Cilansetron 2 mg, N=1454): 1 (<1%) n (%)
TEAE incidence: Blood Cholesterol Increased (Cilansetron 2 mg, N=1454): 25 (2%) n (%)
TEAE incidence: Blood Creatine Phosphokinase Increased (Cilansetron 2 mg, N=1454): 31 (2%) n (%)
TEAE incidence: Blood Creatinine Increased (Cilansetron 2 mg, N=1454): 1 (<1%) n (%)
TEAE incidence: Blood Glucose Increased (Cilansetron 2 mg, N=1454): 2 (<1%) n (%)
TEAE incidence: Blood Potassium Increased (Cilansetron 2 mg, N=1454): 3 (<1%) n (%)
TEAE incidence: Blood Pressure (Cilansetron 2 mg, N=1454): 1 (<1%) n (%)
TEAE incidence: Blood Pressure Increased (Cilansetron 2 mg, N=1454): 5 (<1%) n (%)
TEAE incidence: Blood Thyroid Stimulating Hormone Increased (Cilansetron 2 mg, N=1454): 2 (<1%) n (%)
TEAE incidence: Blood Triglycerides Increased (Cilansetron 2 mg, N=1454): 11 (<1%) n (%)
TEAE incidence: Blood Urea Increased (Cilansetron 2 mg, N=1454): 2 (<1%) n (%)
TEAE incidence: Blood Uric Acid Increased (Cilansetron 2 mg, N=1454): 7 (<1%) n (%)
TEAE incidence: Blood Urine Present (Cilansetron 2 mg, N=1454): 11 (<1%) n (%)
TEAE incidence: Blood in Stool (Cilansetron 2 mg, N=1454): 13 (<1%) n (%)
TEAE incidence: Body Temperature Decreased (Cilansetron 2 mg, N=1454): 2 (<1%) n (%)
TEAE incidence: Body Temperature Increased (Cilansetron 2 mg, N=1454): 5 (<1%) n (%)
TEAE incidence: Body Tinea (Cilansetron 2 mg, N=1454): 2 (<1%) n (%)
TEAE incidence: Bowel Sounds Abnormal (Cilansetron 2 mg, N=1454): 1 (<1%) n (%)
TEAE incidence: Bronchitis Acute NOS (Cilansetron 2 mg, N=1454): 24 (2%) n (%)
TEAE incidence: Bronchitis Chronic NOS (Cilansetron 2 mg, N=1454): 2 (<1%) n (%)
TEAE incidence: Bronchitis NOS (Cilansetron 2 mg, N=1454): 27 (2%) n (%)
TEAE incidence: Bronchopneumonia NOS (Cilansetron 2 mg, N=1454): 1 (<1%) n (%)
TEAE incidence: Burning Sensation NOS (Cilansetron 2 mg, N=1454): 1 (<1%) n (%)
TEAE incidence: Campylobacter Gastroenteritis (Cilansetron 2 mg, N=1454): 1 (<1%) n (%)
